Assay results: doi:10.1101/2024.08.13.607785v1 (biorxiv, 2024)

Molecular target: T1, Dual specificity mitogen-activated protein kinase kinase 3 ; MAP2K3 ; P46734 (Homo sapiens, UniProt P46734)
T1 sequence (P46734 1-347): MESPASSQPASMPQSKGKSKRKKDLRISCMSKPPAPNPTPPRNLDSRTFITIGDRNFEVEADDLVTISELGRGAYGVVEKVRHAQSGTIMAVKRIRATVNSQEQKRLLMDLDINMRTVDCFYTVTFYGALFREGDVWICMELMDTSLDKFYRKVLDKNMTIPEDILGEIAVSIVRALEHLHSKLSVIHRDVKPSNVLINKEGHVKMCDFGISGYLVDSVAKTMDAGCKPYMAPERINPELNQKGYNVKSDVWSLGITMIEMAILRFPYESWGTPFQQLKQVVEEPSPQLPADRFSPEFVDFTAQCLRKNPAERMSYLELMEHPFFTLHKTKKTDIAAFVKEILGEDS
Parameters: species or system mixed lysate of K562, MV4-11, THP-1, NCI-H1155
Settings: DDA-MS residual binding; binder

DDA-MS / % Intensity (30 µM/DMSO): 35.23%
SMILES: Cc1nc(Nc2ncc(C(=O)Nc3c(C)cccc3Cl)s2)cc(N2CCN(CCO)CC2)n1 [dasatinib]
